Test results from patent publication US7034044B2, “Conjugated aromatic compounds with a pyridine substituent” (Hoffmann-La Roche Inc., priority 2001, dated 2006).
Where a name gives a salt, the structure may show the parent alone.

What was measured:
NMDA-receptor subtype 2B = target: T1, NMDA-receptor subtype 2B (Rattus norvegicus, UniProt P35439+Q00960); assay: 3H-Ro 25-6981 binding (displacement); settings: displacement of 5 nM 3H-Ro 25-6981 from rat brain membranes (whole brain minus cerebellum and medulla oblongata), 2 hours at 4° C., Tris-HCl 50 mM pH 7.4
T1 construct: Membranes were prepared by homogenization of the whole brain minus cerebellum and medulla oblongata; from tissue; host or cells: rat whole brain minus cerebellum and medulla oblongata (membranes)
T1 sequence (Q00960 27-1482, other chains not shown): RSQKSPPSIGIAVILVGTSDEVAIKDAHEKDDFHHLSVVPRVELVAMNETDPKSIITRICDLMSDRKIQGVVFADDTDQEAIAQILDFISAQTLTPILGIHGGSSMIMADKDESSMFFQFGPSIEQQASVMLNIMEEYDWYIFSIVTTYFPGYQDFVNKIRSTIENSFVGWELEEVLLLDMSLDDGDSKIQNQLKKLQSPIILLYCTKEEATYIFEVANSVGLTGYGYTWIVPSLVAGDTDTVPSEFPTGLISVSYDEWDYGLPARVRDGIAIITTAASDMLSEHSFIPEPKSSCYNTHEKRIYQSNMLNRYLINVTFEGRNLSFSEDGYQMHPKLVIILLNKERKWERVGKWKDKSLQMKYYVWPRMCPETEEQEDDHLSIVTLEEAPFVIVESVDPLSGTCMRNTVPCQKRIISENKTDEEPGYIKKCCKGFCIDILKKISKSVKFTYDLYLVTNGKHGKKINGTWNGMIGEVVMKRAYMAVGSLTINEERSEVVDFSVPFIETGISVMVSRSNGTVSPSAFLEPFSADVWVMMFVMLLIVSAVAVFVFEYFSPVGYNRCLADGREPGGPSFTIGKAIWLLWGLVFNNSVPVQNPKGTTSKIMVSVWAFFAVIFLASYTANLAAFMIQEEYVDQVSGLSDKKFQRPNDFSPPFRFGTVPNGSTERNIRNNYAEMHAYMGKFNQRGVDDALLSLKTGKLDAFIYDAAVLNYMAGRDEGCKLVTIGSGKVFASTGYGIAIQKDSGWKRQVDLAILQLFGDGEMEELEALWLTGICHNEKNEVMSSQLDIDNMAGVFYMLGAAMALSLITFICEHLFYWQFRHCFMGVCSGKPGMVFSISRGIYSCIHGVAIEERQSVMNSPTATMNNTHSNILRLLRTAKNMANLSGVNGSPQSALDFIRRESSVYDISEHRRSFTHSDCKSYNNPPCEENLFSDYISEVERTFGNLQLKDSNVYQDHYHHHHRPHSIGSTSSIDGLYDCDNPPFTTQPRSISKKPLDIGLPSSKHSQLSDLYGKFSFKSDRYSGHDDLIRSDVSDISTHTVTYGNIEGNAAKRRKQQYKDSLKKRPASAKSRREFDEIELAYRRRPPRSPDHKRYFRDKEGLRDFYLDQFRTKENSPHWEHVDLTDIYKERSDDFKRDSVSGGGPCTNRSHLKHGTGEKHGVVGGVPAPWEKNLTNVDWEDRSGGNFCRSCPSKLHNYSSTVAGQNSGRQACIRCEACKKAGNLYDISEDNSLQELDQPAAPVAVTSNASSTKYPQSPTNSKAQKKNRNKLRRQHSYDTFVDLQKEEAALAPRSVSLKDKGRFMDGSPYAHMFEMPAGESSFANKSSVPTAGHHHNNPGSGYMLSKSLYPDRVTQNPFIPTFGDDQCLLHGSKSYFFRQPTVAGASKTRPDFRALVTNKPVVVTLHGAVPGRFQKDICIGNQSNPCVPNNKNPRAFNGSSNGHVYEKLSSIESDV
Method: ^3H-Ro 25-6981 binding (Ro 25-6981 is [R—(R*,S*)]-α-(4-Hydroxy-phenyl)-β-methyl-4-(phenyl-methyl)-1-piperidine propanol)
Male Füllinsdorf albino rats weighing between 150–200 g were used. Membranes were prepared by homogenization of the whole brain minus cerebellum and medulla oblongata with a Polytron (10.000 rpm, 30 seconds), in 25 volumes of a cold Tris-HCl 50 mM, EDTA 10 mM, pH 7.1 buffer. The homogenate was centrifuged at 48,000 g for 10 minutes at 4° C. The pellet was resuspended using the Polytron in the same volume of buffer and the homogenate was incubated at 37° C. for 10 minutes. After centrifugation the pellet was homogenized in the same buffer and frozen at −80° C. for at least 16 hours but not more than 10 days. For the binding assay the homogenate was thawed at 37° C., centrifuged and the pellet was washed three times as above in a Tris-HCl 5 mM, pH 7.4 cold buffer. The final pellet was resuspended in the same buffer and used at a final concentration of […].
^3H-Ro 25-6981 binding experiments were performed using a Tris-HCl 50 mM, pH 7.4 buffer. For displacement experiments 5 nM of ^3H-Ro 25-6981 were used and non specific binding was measured using 10 mM of tetrahydroisoquinoline and usually it accounts for 10% of the total. The incubation time was 2 hours at 4° C. and the assay was stopped by filtration on Whatmann GF/B glass fiber filters (Unifilter-96, Packard, Zürich, Switzerland). The filters were washed 5 times with cold buffer. The radioactivity on the filter was counted on a Packard Top-count microplate scintillation counter after addition of […] of microscint 40 (Canberra Packard S. A., Zürich, Switzerland).
The above procedure was performed to determine data for calculation of an IC50 value. The IC50 value is a concentration expressed in micromoles (μM) for a test compound at which 50% of the ligand (in this determination, ^3H-Ro 25-6981) bonded to the receptor is displaced. The binding ability of the compounds of the invention was measured in vitro using a minimum of 10 concentrations and repeated at least once. The specific binding at each concentration was then calculated as the % of the maximum specific binding (100%) obtained in the same experiment, in the absence of a test compound. Competitive displacement of ^3H-Ro 25-6981 was observed, with complete displacement of the radioligand from specific binding sites (usually about 0% of specific binding at the highest concentrations tested). An IC50 value was then calculated with all the ten datapoints (% of specific bound) by plotting the data on a semilogarithmic scale with a sigmoidal fit (Log of the molar concentration on X-axis vs. % of specific bound on the Y-axis) using Microsoft Excel fit software or Microcal Origin software. The pooled normalized values were analyzed using a non-linear regression calculation program which provide IC50 with their relative upper and lower 95% confidence limits.

Row | IC50 (NMDA-receptor subtype 2B) [µM] | melting point | Structure (SMILES)
1 | 0.057 | 231 to 232 °C | Cc1cc(C)c2c(c1)C=C(c1cc(N)ccn1)CC2.O=C(O)/C=C/C(=O)O [Example 34, 2-(5,7-Dimethyl-3,4-dihydro-naphthalen-2-yl)-pyridin-4-yl-amine fumarate]
2 | 0.01 | > 250 °C | Cc1cc(N)nc(/C=C/c2ccccc2)c1.Cl [Example 14, trans-4-Methyl-6-styryl-pyridin-2-yl-amine hydrochloride]
3 |  | 224 to 226 °C | COc1ccc(C=Cc2cccc(N)n2)cc1.Cl
4 |  | 207 to 208 °C | COc1cccc2c1CCC(c1cc(N)ccn1)=C2.O=C(O)/C=C/C(=O)O
5 | 0.023 | 232 to 233 °C | CCc1cc(N)cc(C2=Cc3cc(Cl)ccc3CC2)n1.O=C(O)/C=C/C(=O)O [Example 36, 2-(7-Chloro-3,4-dihydro-naphthalen-2-yl)-6-ethyl-pyridin-4-yl-amine fumarate]
6 | 0.08 | 170 °C (dec.) | Cl.NCc1cccc(/C=C/c2ccccc2)n1 [Example 18, trans-C-(6-Styryl-pyridin-2-yl)-methylamine hydrochloride]
7 |  | 232 to 233 °C | Cc1ccc(C)c2c1C=C(c1cc(N)ccn1)CC2.O=C(O)/C=C/C(=O)O
8 |  | 142 to 143 °C | Cc1cc(N)nc(C2=Cc3ccccc3CC2)c1.O=C(O)/C=C/C(=O)O
9 | 0.038 | 203 to 204 °C | Cl.NCc1cccc(C2=Cc3ccccc3CC2)n1 [Example 28, C-[6-(3,4-Dihydro-naphthalen-2-yl)-pyridin-2-yl]-methylamine hydrochloride]
10 |  | 87 to 88 °C | Cc1c(N)ccnc1C1=Cc2ccccc2CC1 [Example 25, 2-(3,4-Dihydro-naphthalen-2-yl)-3-methyl-pyridin-4-yl-amine]
11 |  | 218 to 219 °C | Cc1cnc(C2=Cc3ccsc3CC2)cc1N.O=C(O)/C=C/C(=O)O
12 |  | > 250 °C | Cc1cnc(C2=Cc3cc(Cl)ccc3CC2)cc1N.O=C(O)/C=C/C(=O)O
13 | 0.04 | 164 to 165 °C | Nc1ccnc(/C=C/c2ccccc2)c1 [Example 16, trans-2-Styryl-pyridin-4-yl-amine]
14 |  | 193 to 194 °C | COc1ccc2c(c1)C=C(c1cc(N)ccn1)CC2.O=C(O)/C=C/C(=O)O
15 | 0.082 | 232 to 233 °C | Cc1cc(N)cc(C2=Cc3cc(Cl)ccc3CC2)n1.O=C(O)/C=C/C(=O)O [Example 37, 2-(7-Chloro-3,4-dihydro-naphthalen-2-yl)-6-methyl-pyridin-4-yl-amine fumarate]
16 |  | 224 to 225 °C | Nc1cccc(C=Cc2ccc(O)cc2)n1 [Example 11, 4-[2-(6-Amino-pyridin-2-yl)-vinyl]-phenol]
17 |  | > 250 °C | Cl.Nc1cccc(C=Cc2ccc(Cl)c(Cl)c2)n1
18 | 0.052 | 106 to 107 °C | CNc1ccnc(C2=Cc3ccccc3CC2)c1.O=C(O)/C=C/C(=O)O [Example 27, [2-(3,4-Dihydro-naphthalen-2-yl)-pyridin-4-yl]-methyl-amine fumarate]
19 | 0.038 | > 230 °C (dec.) | CCc1cc(N)cc(C2=Cc3ccccc3CC2)n1.O=C(O)/C=C/C(=O)O [Example 26, 2-(3,4-Dihydro-naphthalen-2-yl)-6-ethyl-pyridin-4-yl-amine fumarate]
20 | 0.011 | > 200 °C (dec.) | Cc1cnc(C2=Cc3ccccc3CC2)cc1N.O=C(O)/C=C/C(=O)O [Example 24, 2-(3,4-Dihydro-naphthalen-2-yl)-5-methyl-pyridin-4-yl-amine fumarate]

Row | IC50 (NMDA-receptor subtype 2B) [µM] | melting point | Structure (SMILES)
21 |  | 183 to 185 °C (dec.) | Cc1cc(N)cc(C2=Cc3ccccc3C(C)C2)n1.O=C(O)/C=C/C(=O)O (racemic)
22 |  | 222 to 223 °C | Cl.Nc1cccc(C=Cc2cccc(C(F)(F)F)c2)n1
23 |  | > 250 °C | Cl.Nc1cccc(C=Cc2ccccc2F)n1
24 |  | 199 to 200 °C | Nc1ccnc(C2=Cc3ccsc3CC2)c1.O=C(O)/C=C/C(=O)O
25 | 0.02 |  | Nc1ccnc(C2=Cc3cc(Cl)ccc3CC2)c1 [Example 30, 2-(7-Chloro-3,4-dihydro-naphthalen-2-yl)-pyridin-4-ylamine fumarate]
26 |  | 248 to 249 °C | Cl.Nc1cccc(C=Cc2cccc(Cl)c2)n1
27 |  | 113 °C (dec.) | Nc1cc(CO)nc(C2=Cc3ccccc3CC2)c1.O=C(O)/C=C/C(=O)O
28 |  | 157 to 158 °C | CNc1cccc(/C=C/c2ccccc2)n1.Cl
29 |  | > 250 °C | Cl.Nc1cccc(C=Cc2ccc(Cl)cc2)n1
30 | 0.018 | 231 to 232 °C | Cl.Nc1ccnc(C2=Cc3ccccc3CC2)c1 [Example 19, 2-(3,4-Dihydro-naphthalen-2-yl)-pyridin-4-yl-amine hydrochloride]
31 |  | 153 to 154 °C | Nc1cccc(C2=Cc3ccccc3CC2)n1.O=C(O)/C=C/C(=O)O
32 |  | > 250 °C | Cc1ccc(C=Cc2cccc(N)n2)cc1.Cl
33 |  | 176 to 177 °C | CC1CC(c2cc(N)ccn2)=Cc2ccccc21.O=C(O)/C=C/C(=O)O (racemic)
34 |  | 159 to 160 °C | Nc1ccc(/C=C/c2ccccc2)nc1 [Example 15, trans-6-Styryl-pyridin-3-yl-amine]
35 |  | 210 to 211 °C | Cc1cnc(C2=Cc3ccccc3C(C)C2)cc1N.O=C(O)/C=C/C(=O)O (racemic)
36 |  | > 250 °C | Cl.Nc1cccc(C=Cc2cccc(F)c2)n1
37 | 0.032 | 202 to 203 °C | Cc1cc(N)cc(C2=Cc3ccccc3CC2)n1.O=C(O)/C=C/C(=O)O [Example 22, 2-(3,4-Dihydro-naphthalen-2-yl)-6-methyl-pyridin-4-yl-amine fumarate]
38 | 0.03 | 149 to 150 °C | Cc1cc(/C=C/c2ccccc2)cc(N)n1 [Example 13, trans-6-Methyl-4-styryl-pyridin-2-yl-amine]
39 |  | > 250 °C | Cl.Nc1cccc(C=Cc2ccc(F)cc2)n1
